System: recombinant NL-RLuc virus (HIV, NL4-3 derived) in MT-2 cells
Experiment: Inhibition of HIV replication (NL-RLuc virus in MT-2 cells, luciferase readout)
Format: cell-based
Settings: 5 days of incubation, 10% FBS
Text: Inhibition of HIV Replication.
A recombinant NL-RLuc proviral clone was constructed in which a section of the nef gene from NL4-3 was replaced with the Renilla Luciferase gene. This virus is fully infectious and can undergo multiple cycles of replication in cell culture. In addition, the luciferous reporter provides a simple and easy method for quantitating the extent of virus growth and consequently, the antiviral activity of test compounds. The plasmid pNLRLuc contains the proviral NL-Rluc DNA cloned into pUC 18 at the PvuII site. The NL-RLuc virus was prepared by transfection of 293T cells with the plasmid pNLRLuc. Transfections were performed using the LipofectAMINE PLUS kit from Invitrogen (Carlsbad, Calif.) according to the manufacturer and the virus generated was titered in MT-2 cells. For susceptibility analyses, the titrated virus was used to infect MT-2 cells in the presence of compound, and after 5 days of incubation, cells were processed and quantitated for virus growth by the amount of expressed luciferase. […] Luciferase was quantitated using the Dual Luciferase kit from Promega (Madison, Wis.). Susceptibility of viruses to compounds was determined by incubation in the presence of serial dilutions of the compound. […]

| SMILES | EC50 |
| --- | --- |
| Cc1ccc2c(c1)-c1cccc(c1)-c1nc3cc(C)c([C@H](OC(C)(C)C)C(=O)O)c(c3s1)-c1ccc3c(c1)C(CCCC[C@H](C)O2)CCO3 (single isomer, unassigned) [Example 1] | 5620 nM |
| Cc1ccc2c(c1)-c1cccc(c1)-c1nc3cc(C)c([C@H](OC(C)(C)C)C(=O)O)c(c3s1)-c1ccc3c(c1)C(CCCC[C@H](C)O2)CCO3 (single isomer, unassigned) [Example 2] | 350 nM |

Source: patent publication US9944656B2, “Benzothiazole macrocycles as inhibitors of human immunodeficiency virus replication” (priority 2014, dated 2018)
